{"source": "patent US6316405A", "about": "“Cyclosporin a conjugates and uses therefor” (Wisconsin Alumni Research Foundation, priority 1999, dated 2001)", "key": {"[1]": {"test": "Solubility of Aβ-binding peptides in organic solvents", "conditions": "for solubility of the peptide (in words): running text, organic solvents", "procedure": "After cleavage from the resin with TFA, the solubles of the crude peptides were determined (ca. 3-5 mg/0.5-1.0 ml) in various solvents (LiCl/DMF, DMF or NMP, and/or mixtures with DCM/MeOH/CH3 CN/dioxane).\n^a conditions: 3-5 mg peptide/0.5-1.0 mL.\n^b conditions tested; NMP, DMF, DMF/LiCl, THF, CH3 CN, DCM, MeOH,"}, "Aβ peptide": {"molecular_target": "Aβ peptide (Homo sapiens, UniProt P05067)", "sequence (P05067 672-713 limits assumed)": "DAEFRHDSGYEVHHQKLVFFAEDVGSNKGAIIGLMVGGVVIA", "conditions": "Tjernberg et al. 1996; cited from earlier work"}, "cyclophilin (Cyp)": {"test_system": "cyclophilin (Cyp)", "conditions": "cited from earlier work"}, "nerve regeneration": {"test_system": "nerve regeneration", "conditions": "NGF must be present; Lyons et al. 1994, Steine et al. 1997; cited from earlier work"}, "[2]": {"test": "Solubility of conjugates in organic solvents", "conditions": "running text"}, "[3]": {"conditions": "Table 11.3, 3-5 mg peptide/0.5-1.0 mL, all free lysines are TFA salts"}, "[4]": {"conditions": "Table 11.1, ca. 3-5 mg/0.5-1.0 ml"}, "[5]": {"conditions": "Table 11.1, crude peptides for CsA analog coupling, ca. 3-5 mg/0.5-1.0 ml"}}, "note": "“Also recorded” adds a separate entry of the source. Peptide text beside a SMILES is read from it. * marks the point of attachment. X1 = CCC(C)(C)C(=O)C(=O)N1CCCC[C@H]1C(=O)O[C@H](CCc1ccccc1)c1cccc(OCC(=O)*)c1; NHTrityl = c1ccc(C(N*)(c2ccccc2)c2ccccc2)cc1; Acetyl(pyridin-2-yl) = O=C(Cc1ccccn1)*; Fmoc = O=C(OCC1c2ccccc2-c2ccccc21)*; ClZ = O=C(OCc1ccccc1Cl)*; Alloc = C=CCOC(=O)*", "data": [{"compound": "C=CCOC(=O)NCCCC[C@H](NC(=O)OCC1c2ccccc2-c2ccccc21)C(=O)N[C@@H](CC(C)C)C(=O)N[C@H](C(=O)N[C@@H](Cc1ccccc1)C(=O)N[C@@H](Cc1ccccc1)C(=O)N[C@@H](CCCCN)C(N)=O)C(C)C", "note": "[11.36, Fmoc-K(Alloc)LVFFK-NH2] (Fmoc-K(Alloc)LVFFK-NH2)", "values": [{"measurement": "Solubility (solvent in which the peptide is soluble)", "setting": "[1]; [3]", "value": "LiCl/DMF"}, {"measurement": "solubility of the peptide (in words)", "setting": "[1]", "value": "completely soluble in LiCl/DMF"}]}, {"compound": "Ac-QKLVFF-NH2", "values": [{"measurement": "fibril formation (in words)", "setting": "Aβ peptide", "value": "binds to and inhibits fibril formation"}]}, {"compound": "CC(=O)N[C@@H](CCC(=O)NC(c1ccccc1)(c1ccccc1)c1ccccc1)C(=O)N[C@@H](CCCCNC(=O)OCc1ccccc1Cl)C(=O)N[C@@H](CC(C)C)C(=O)N[C@H](C(=O)N[C@@H](Cc1ccccc1)C(=O)N[C@@H](Cc1ccccc1)C(=O)O)C(C)C", "note": "[11.24, Ac-Q(Trt)K(2Cl-Cbz)LVFF-OH] (Ac-E(NHTrityl)K(ClZ)LVFF-OH)", "values": [{"measurement": "Solubility grade in LiCl/DMF or LiCl/NMP", "setting": "[1]; [4]", "value": "medium"}, {"measurement": "solubility of the peptide (in words)", "setting": "[1]", "value": "no improvement in solubility is observed"}]}, {"compound": "CC(=O)N[C@@H](CCCCNC(=O)OCc1ccccc1Cl)C(=O)N[C@@H](CC(C)C)C(=O)N[C@H](C(=O)N[C@@H](Cc1ccccc1)C(=O)N[C@@H](Cc1ccccc1)C(=O)O)C(C)C", "note": "[11.27, Ac-K(2Cl-Cbz)LVFF-OH]", "values": [{"measurement": "Solubility (solvent in which the peptide is soluble)", "setting": "[1]; [5]", "value": "DMF"}, {"measurement": "solubility of the peptide (in words)", "setting": "[1]", "value": "soluble in DMF but requires a longer vortexing period"}, {"measurement": "solubility of the peptide (in words)", "setting": "[1]; listed as Ac-K(2Cl-Cbz)LVFF-OH", "value": "increased solubility in DMF"}]}, {"compound": "CC(C)C[C@H](NC(=O)[C@H](CCCCN)NC(=O)Cc1ccccn1)C(=O)N[C@H](C(=O)N[C@@H](Cc1ccccc1)C(=O)N[C@@H](Cc1ccccc1)C(N)=O)C(C)C", "note": "[11.39, Pyridylacetate-KLVFF-NH2]", "values": [{"measurement": "Solubility (solvent in which the peptide is soluble)", "setting": "[1]; [3]", "value": "DMF"}, {"measurement": "solubility of the peptide (in words)", "setting": "[1]", "value": "completely soluble in DMF as the double TFA salts"}]}, {"compound": "CC(C)C[C@H](NC(=O)[C@H](CCCCN)NC(=O)OCC1c2ccccc2-c2ccccc21)C(=O)N[C@H](C(=O)N[C@@H](Cc1ccccc1)C(=O)N[C@@H](Cc1ccccc1)C(N)=O)C(C)C", "note": "[11.37, Fmoc-KLVFF-NH2]", "values": [{"measurement": "Solubility (solvent in which the peptide is soluble)", "setting": "[1]; [3]", "value": "DMF"}, {"measurement": "solubility of the peptide (in words)", "setting": "[1]", "value": "completely soluble in DMF"}]}, {"compound": "C=CCOC(=O)NCCCC[C@H](NC(=O)Cc1ccccn1)C(=O)N[C@@H](CC(C)C)C(=O)N[C@H](C(=O)N[C@@H](Cc1ccccc1)C(=O)N[C@@H](Cc1ccccc1)C(=O)N[C@@H](CCCCN)C(N)=O)C(C)C", "note": "[11.40, Pyiidylacetate-K(Alloc)LVFFK-NH2] ({Acetyl(pyridin-2-yl)}-K(Alloc)LVFFK-NH2)", "values": [{"measurement": "Solubility (solvent in which the peptide is soluble)", "setting": "[1]; [3]", "value": "DMF"}, {"measurement": "solubility of the peptide (in words)", "setting": "[1]", "value": "completely soluble in DMF as the double TFA salts"}]}, {"compound": "[MeLeu(3-OH)^1, MeAla^4,6 ]-CsA", "values": [{"measurement": "binding to cyclophilin (in words)", "setting": "cyclophilin (Cyp)", "value": "retains tight-binding to cyclophilin"}]}, {"compound": "C=CC[C@@H]1/C=C(\\C)C[C@H](C)C[C@H](OC)[C@H]2O[C@@](O)(C(=O)C(=O)N3CCCC[C@H]3C(=O)O[C@H](/C(C)=C/[C@@H]3CC[C@@H](O)[C@H](OC)C3)[C@H](C)[C@@H](O)CC1=O)[C@H](C)C[C@@H]2OC", "note": "[FK506]", "values": [{"measurement": "binding to cyclophilin (in words)", "setting": "cyclophilin (Cyp)", "value": "does not bind to Cyp"}, {"measurement": "significant neurotrophic activity at concentrations as low as", "setting": "nerve regeneration", "value": 1, "unit": "pM"}]}, {"compound": "CC(C)C[C@H](NC(=O)[C@H](CCCCNC(=O)OCc1ccccc1Cl)NC(=O)[C@H](CCC(=O)O)NC(=O)OCC1c2ccccc2-c2ccccc21)C(=O)N[C@H](C(=O)N[C@@H](Cc1ccccc1)C(=O)N[C@@H](Cc1ccccc1)C(N)=O)C(C)C", "note": "[11.28, Fmoc-EK(2Cl-Cbz)LVFF-NH2] (Fmoc-EK(ClZ)LVFF-NH2)", "values": [{"measurement": "Solubility (solvent in which the peptide is soluble)", "setting": "[1]; [5]", "value": "DMF"}, {"measurement": "solubility of the peptide (in words)", "setting": "[1]", "value": "soluble in neat DMF without added LiCl"}]}, {"compound": "C=CCOC(=O)NCCCC[C@H](NC(=O)OCC1c2ccccc2-c2ccccc21)C(=O)N[C@@H](CC(C)C)C(=O)N[C@H](C(=O)N[C@@H](Cc1ccccc1)C(=O)N[C@@H](Cc1ccccc1)C(=O)N[C@@H](CCCCNC(=O)COc1cccc([C@@H](CCc2ccccc2)OC(=O)[C@@H]2CCCCN2C(=O)C(=O)C(C)(C)CC)c1)C(N)=O)C(C)C", "note": "[11.41] (Fmoc-K(Alloc)LVFFK(X1)-NH2)", "values": [{"measurement": "solubility of the conjugate (in words)", "setting": "[2]", "value": "not completely soluble in DCM, DCM/MeOH, or MeOH"}]}, {"compound": "CC(=O)N[C@@H](CCC(N)=O)C(=O)N[C@@H](CCCCNC(=O)OCc1ccccc1Cl)C(=O)N[C@@H](CC(C)C)C(=O)N[C@H](C(=O)N[C@@H](Cc1ccccc1)C(=O)N[C@@H](Cc1ccccc1)C(=O)O)C(C)C", "note": "[11.23, Ac-QK(2Cl-Cbz)LVFF-OH]", "values": [{"measurement": "Solubility grade in LiCl/DMF or LiCl/NMP", "setting": "[1]; [4]", "value": "medium"}, {"measurement": "solubility of the peptide (in words)", "setting": "[1]", "value": "poorly soluble in all solvents including LiCl/DMF; also recorded: sparingly soluble in LiCl/DMF"}]}, {"compound": "C=CCOC(=O)NCCCC[C@H](NC(=O)Cc1ccccn1)C(=O)N[C@@H](CC(C)C)C(=O)N[C@H](C(=O)N[C@@H](Cc1ccccc1)C(=O)N[C@@H](Cc1ccccc1)C(=O)N[C@@H](CCCCNC(=O)COc1cccc([C@@H](CCc2ccccc2)OC(=O)[C@@H]2CCCCN2C(=O)C(=O)C(C)(C)CC)c1)C(N)=O)C(C)C", "note": "[10.9, Pyridyl acetyl-K(alloc)LVFFK-NH2 /FKBP inhibitor conjugate] ({Acetyl(pyridin-2-yl)}-K(Alloc)LVFFK(X1)-NH2)", "values": [{"measurement": "solubility of the conjugate (in words)", "setting": "[2]", "value": "methanol soluble salt"}]}, {"compound": "CC(C)C[C@H](NC(=O)[C@H](CCCCNC(=O)OCc1ccccc1Cl)NC(=O)[C@H](CCC(=O)NC(c1ccccc1)(c1ccccc1)c1ccccc1)NC(=O)OCC1c2ccccc2-c2ccccc21)C(=O)N[C@H](C(=O)N[C@@H](Cc1ccccc1)C(=O)N[C@@H](Cc1ccccc1)C(=O)O)C(C)C", "note": "[11.25, Fmoc-Q(Trt)K(2Cl-Cbz)LVFF-OH] (Fmoc-E(NHTrityl)K(ClZ)LVFF-OH)", "values": [{"measurement": "Solubility (solvent in which the peptide is soluble)", "setting": "[1]; [5]", "value": "Hot NMP"}, {"measurement": "solubility of the peptide (in words)", "setting": "[1]", "value": "soluble in only hot NMP and remained cloudy in LiCl/DMF"}]}, {"compound": "CC(C)C[C@H](NC(=O)[C@H](CCCCNC(=O)OCc1ccccc1Cl)NC(=O)OCC1c2ccccc2-c2ccccc21)C(=O)N[C@H](C(=O)N[C@@H](Cc1ccccc1)C(=O)N[C@@H](Cc1ccccc1)C(=O)O)C(C)C", "note": "[11.26, Fmoc-K(2Cl-Cbz)LVFF-OH]", "values": [{"measurement": "Solubility (solvent in which the peptide is soluble)", "setting": "[1]; [5]", "value": "DMF"}, {"measurement": "solubility of the peptide (in words)", "setting": "[1]", "value": "completely soluble in DMF after a short period of vortexing"}]}, {"compound": "C=CCOC(=O)NCCCC[C@H](NC(=O)[C@H](CCCCN)NC(=O)OCC1c2ccccc2-c2ccccc21)C(=O)N[C@@H](CC(C)C)C(=O)N[C@H](C(=O)N[C@@H](Cc1ccccc1)C(=O)N[C@@H](Cc1ccccc1)C(N)=O)C(C)C", "note": "[11.35, Fmoc-KK(Alloc)LVFF-NH2] (Fmoc-KK(Alloc)LVFF-NH2)", "values": [{"measurement": "Solubility grade in LiCl/DMF or LiCl/NMP", "setting": "[1]; [3]", "value": "medium"}, {"measurement": "solubility of the peptide (in words)", "setting": "[1]", "value": "insoluble in DMF/LiCl"}]}, {"compound": "CC(=O)N[C@@H](CCC(=O)O)C(=O)N[C@@H](CCCCNC(=O)OCc1ccccc1Cl)C(=O)N[C@@H](CC(C)C)C(=O)N[C@H](C(=O)N[C@@H](Cc1ccccc1)C(=O)N[C@@H](Cc1ccccc1)C(N)=O)C(C)C", "note": "[11.29, Ac-EK(2Cl-Cbz)LVFF-NH2] (Ac-EK(ClZ)LVFF-NH2)", "values": [{"measurement": "Solubility (solvent in which the peptide is soluble)", "setting": "[1]; [5]", "value": "LiCl/DMF"}, {"measurement": "solubility of the peptide (in words)", "setting": "[1]", "value": "completely soluble only in LiCl/DMF"}, {"measurement": "solubility of the peptide (in words)", "setting": "[1]; listed as Ac-EK(2Cl-Cbz)LVFF-NH2", "value": "increased solubility in DMF"}]}]}
